Like-named read-outs stand apart in the source and are kept apart here.
Legend:
PDGF-Ra = target: T1, PDGF-Ra (Homo sapiens, UniProt P16234); assay: Inhibitory activity against PDGF-Ra phosphorylation by PDGF-AA stimulation using G292; assay type: cell-based; settings: for IC50: > means inhibition at indicated concentration not more than 50%, < and << not less than 50%, read-out: PDGF (E) IC50
T1 construct: host or cells: G-292 human osteosarcoma cells
Procedure, shortened: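 G-292 human osteosarcoma cells in 0.1% FBS medium overnight, given compound for 1 hr at 37° C, then PDGF-AA 50 ng/ml for 5 min. Lysates captured on anti-phosphotyrosine (PY-20) plates and probed with anti-PDGF-Ra plus HRP secondary; absorbance at 450 nm.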

c-kit = target: T2, c-kit (Homo sapiens, UniProt P10721); assay: Inhibitory activity against c-kit autophosphorylation (MO7e cells, h-SCF); assay type: cell-based; settings: MO7e cells, read-out: c-kit IC50
T2 construct: MO7e (human megakaryocytic leukemia cell line) which had been arrested for 20 hr; endogenous in cells; host or cells: MO7e human megakaryocytic leukemia cell line
T2 sequence (P10721 26-976): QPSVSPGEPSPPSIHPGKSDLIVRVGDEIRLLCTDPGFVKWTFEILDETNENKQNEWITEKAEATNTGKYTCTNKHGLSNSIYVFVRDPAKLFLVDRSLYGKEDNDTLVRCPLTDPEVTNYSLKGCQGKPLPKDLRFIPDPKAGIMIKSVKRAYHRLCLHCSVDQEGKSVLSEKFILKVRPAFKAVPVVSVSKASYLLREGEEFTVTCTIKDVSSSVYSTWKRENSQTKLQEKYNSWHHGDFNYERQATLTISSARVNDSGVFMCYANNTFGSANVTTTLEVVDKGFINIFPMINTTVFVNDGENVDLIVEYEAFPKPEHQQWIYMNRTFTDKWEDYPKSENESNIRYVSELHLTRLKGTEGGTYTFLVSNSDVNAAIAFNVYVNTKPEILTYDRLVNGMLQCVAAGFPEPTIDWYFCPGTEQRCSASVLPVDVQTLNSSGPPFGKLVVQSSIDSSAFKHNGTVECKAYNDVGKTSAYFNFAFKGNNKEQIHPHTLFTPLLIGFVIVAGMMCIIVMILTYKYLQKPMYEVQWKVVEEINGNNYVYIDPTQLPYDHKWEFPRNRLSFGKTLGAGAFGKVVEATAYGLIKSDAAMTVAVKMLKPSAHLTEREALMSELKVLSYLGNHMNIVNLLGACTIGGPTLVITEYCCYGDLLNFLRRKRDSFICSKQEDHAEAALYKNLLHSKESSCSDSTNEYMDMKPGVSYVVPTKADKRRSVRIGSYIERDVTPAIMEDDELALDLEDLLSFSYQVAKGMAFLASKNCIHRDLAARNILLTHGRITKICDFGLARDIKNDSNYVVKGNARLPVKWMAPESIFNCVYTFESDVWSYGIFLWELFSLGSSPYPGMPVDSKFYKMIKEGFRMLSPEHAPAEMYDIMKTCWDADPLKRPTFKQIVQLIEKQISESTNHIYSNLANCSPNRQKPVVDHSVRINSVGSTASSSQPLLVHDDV
Procedure, shortened: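 Phospho-c-kit ELISA: plate-bound PY-20 anti-phosphotyrosine captures lysate, anti-c-kit plus peroxidase-labelled secondary antibody detect, read at 450 nm. Lysates come from 20 hr-arrested MO7e cells given compound for 1 hr before a 5 min 50 ng/ml h-SCF stimulus.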

T1 sequence (P16234 24-1089): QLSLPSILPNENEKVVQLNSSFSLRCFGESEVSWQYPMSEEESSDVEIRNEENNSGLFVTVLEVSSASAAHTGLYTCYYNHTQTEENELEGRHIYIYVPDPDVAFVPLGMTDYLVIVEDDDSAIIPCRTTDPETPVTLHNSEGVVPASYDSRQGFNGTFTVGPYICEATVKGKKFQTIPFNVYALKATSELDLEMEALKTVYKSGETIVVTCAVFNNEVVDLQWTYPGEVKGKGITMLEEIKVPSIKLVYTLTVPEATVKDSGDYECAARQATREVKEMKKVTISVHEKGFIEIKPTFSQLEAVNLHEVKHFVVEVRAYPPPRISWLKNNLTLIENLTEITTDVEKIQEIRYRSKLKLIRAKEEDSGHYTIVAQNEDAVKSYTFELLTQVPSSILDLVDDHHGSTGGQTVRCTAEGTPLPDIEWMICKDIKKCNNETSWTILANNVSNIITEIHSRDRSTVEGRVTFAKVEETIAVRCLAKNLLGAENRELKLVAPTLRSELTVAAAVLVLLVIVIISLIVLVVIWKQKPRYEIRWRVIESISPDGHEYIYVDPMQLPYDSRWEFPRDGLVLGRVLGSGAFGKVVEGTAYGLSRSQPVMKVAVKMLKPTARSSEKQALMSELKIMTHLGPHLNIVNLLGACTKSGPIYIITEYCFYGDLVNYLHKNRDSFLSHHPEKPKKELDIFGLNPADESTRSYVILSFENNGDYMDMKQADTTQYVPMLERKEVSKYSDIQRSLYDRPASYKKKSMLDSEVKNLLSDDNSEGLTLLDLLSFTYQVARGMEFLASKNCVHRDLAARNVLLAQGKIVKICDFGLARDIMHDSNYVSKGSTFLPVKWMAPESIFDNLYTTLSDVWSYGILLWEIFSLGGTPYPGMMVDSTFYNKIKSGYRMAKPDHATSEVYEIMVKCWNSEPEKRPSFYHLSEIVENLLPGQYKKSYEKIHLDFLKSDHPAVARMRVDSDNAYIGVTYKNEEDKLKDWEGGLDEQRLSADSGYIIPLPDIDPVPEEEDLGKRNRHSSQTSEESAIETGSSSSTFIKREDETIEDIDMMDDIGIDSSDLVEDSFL

Row | IC50 (PDGF-Ra; Pharmacological Test Example 1) [nM] | IC50 (c-kit; h-SCF 50 ng/ml) [nM] | inhibition at 0.1 µM (PDGF-Ra; G292, figure in parentheses in >100( ), at 100 nM, read-out: PDGF (E) inhibition (%) at 100 nM) [%] | IC50 (PDGF-Ra) [nM] | IC50 (c-kit; 50 ng/ml h-SCF) [nM] | SMILES
1 | 74 | 144 |  |  |  | C=CCOC(=O)Nc1ccc(Oc2ncnc3cc(OC)c(OC)cc23)cc1 [Example 375, Allyl N-{4-[(6,7-dimethoxy-4-quinazolinyl)oxy]phenyl}carbamate]
2 | 74 | 90 |  |  |  | COc1cc2ncnc(Oc3ccc(NC(=O)OCC4CC4)cc3)c2cc1OC [Example 383, Cyclopropylmethyl N-{4-[(6,7-dimethoxy-4-quinazolinyl)oxy]phenyl}carbamate]
3 | 12 | 60 |  |  |  | COc1cc2ncnc(Oc3ccc(NC(=O)OCC4CCC4)cc3)c2cc1OC [Example 388, Cyclobutylmethyl N-{4-[(6,7-dimethoxy-4-quinazolinyl)oxy]phenyl}carbamate]
4 | 13 | 129 |  |  |  | COc1cc2ncnc(Oc3ccc(NC(=O)OC4CCCCC4)c(C)c3C)c2cc1OC [Example 391, Cyclohexyl N-{4-[(6,7-dimethoxy-4-quinazolinyl)oxy]-2,3-dimethylphenyl}carbamate]
5 | < 10 | 133 |  |  |  | COc1cc2nccc(Oc3ccc(NC(=O)OCC4CCCC4)cc3)c2cc1OC [Example 394, Cyclopentylmethyl N-{4-[(6,7-dimethoxy-4-quinolyl)oxy]phenyl}carbamate]
6 | 19 | 226 |  |  |  | COc1cc2nccc(Oc3cc(C)c(NC(=O)OCC4CCCC4)cc3C)c2cc1OC [Example 395, Cyclopentylmethyl N-{4-[(6,7-dimethoxy-4-quinolyl)oxy]-2,5-dimethylphenyl}carbamate]
7 | < 10 | 77 |  |  |  | COc1cc2ncnc(Oc3ccc(NC(=O)OCC4CCCC4)cc3)c2cc1OC [Example 397, Cyclopentylmethyl N-{4-[(6,7-dimethoxy-4-quinazolinyl)oxy]phenyl}carbamate]
8 |  |  |  | < 10 | 671 | CCCC(CCC)OC(=O)Nc1ccc(Oc2ncnc3cc(OC)c(OC)cc23)cc1 [Example 400, 1-Propylbutyl N-{4-[(6,7-dimethoxy-4-quinazolinyl)oxy]phenyl}carbamate]
9 |  |  |  | < 10 | 81 | C=C(C)COC(=O)Nc1ccc(Oc2ccnc3cc(OC)c(OC)cc23)cc1 [Example 404, 2-Methylallyl N-{4-[(6,7-dimethoxy-4-quinolyl)oxy]phenyl}carbamate]
10 |  |  |  | 46 | 126 | C=C(C)COC(=O)Nc1cc(C)c(Oc2ccnc3cc(OC)c(OC)cc23)cc1C [Example 405, 2-Methylallyl N-{4-[(6,7-dimethoxy-4-quinolyl)oxy]-2,5-dimethylphenyl}carbamate]
11 |  |  |  | < 10 | < 30 | C=C(C)COC(=O)Nc1ccc(Oc2ccnc3cc(OC)c(OC)cc23)c(C)c1C [Example 406, 2-Methylallyl N-{4-[(6,7-dimethoxy-4-quinolyl)oxy]-2,3-dimethylphenyl}carbamate]
12 |  |  |  | 26 | 392 | C#CCC(CC)OC(=O)Nc1cc(C)c(Oc2ccnc3cc(OC)c(OC)cc23)cc1C (stereo not shown) [Example 409, 1-Ethyl-3-butynyl N-{4-[(6,7-dimethoxy-4-quinolyl)oxy]-2,5-dimethylphenyl}carbamate]
13 |  |  |  | 12 | 79 | C#CCC(CC)OC(=O)Nc1ccc(Oc2ccnc3cc(OC)c(OC)cc23)c(C)c1C (stereo not shown) [Example 410, 1-Ethyl-3-butynyl N-{4-[(6,7-dimethoxy-4-quinolyl)oxy]-2,3-dimethylphenyl}carbamate]
14 |  |  |  | 17 | 43 | CCCCCC(C)OC(=O)Nc1ccc(Oc2ccnc3cc(OC)c(OC)cc23)cc1 (stereo not shown) [Example 411, 1-Methylhexyl N-{4-[(6,7-dimethoxy-4-quinolyl)oxy]phenyl}carbamate]
15 |  |  |  | 81 | 122 | CCCCCC(C)OC(=O)Nc1cc(C)c(Oc2ccnc3cc(OC)c(OC)cc23)cc1C (stereo not shown) [Example 412]

Continued, molecule first:

Row | SMILES | IC50 (PDGF-Ra; Pharmacological Test Example 1) [nM] | IC50 (c-kit; h-SCF 50 ng/ml) [nM] | inhibition at 0.1 µM (PDGF-Ra; G292, figure in parentheses in >100( ), at 100 nM, read-out: PDGF (E) inhibition (%) at 100 nM) [%] | IC50 (PDGF-Ra) [nM] | IC50 (c-kit; 50 ng/ml h-SCF) [nM]
16 | CCCCC(CCCC)OC(=O)Nc1ccc(Oc2ncnc3cc(OC)c(OC)cc23)cc1 [Example 371, 1-Butylpentyl N-{4-[(6,7-dimethoxy-4-quinazolinyl)oxy]phenyl}carbamate] | < 10 | 541 |  |  | 
17 | C=CCOC(=O)Nc1cc(C)c(Oc2ccnc3cc(OC)c(OC)cc23)cc1C [Example 373, Allyl N-{4-[(6,7-dimethoxy-4-quinolyl)oxy]-2,5-dimethylphenyl}carbamate] | 43 | 71 |  |  | 
18 | C=CCOC(=O)Nc1ccc(Oc2ccnc3cc(OC)c(OC)cc23)c(C)c1C [Example 374, Allyl N-{4-[(6,7-dimethoxy-4-quinolyl)oxy]-2,3-dimethylphenyl}carbamate] | < 10 | < 30 |  |  | 
19 | COc1cc2nccc(Oc3ccc(NC(=O)OCCCc4ccccc4)cc3)c2cc1OC [Example 376, 3-Phenylpropyl N-{4-[(6,7-dimethoxy-4-quinolyl)oxy]phenyl}carbamate] | < 10 | 41 |  |  | 
20 | COc1cc2nccc(Oc3cc(C)c(NC(=O)OCCCc4ccccc4)cc3C)c2cc1OC [Example 377, 3-Phenylpropyl N-{4-[(6,7-dimethoxy-4-quinolyl)oxy]-2,5-dimethylphenyl}carbamate] | 21 | 151 |  |  | 
21 | COc1cc2nccc(Oc3ccc(NC(=O)OCCCc4ccccc4)c(C)c3C)c2cc1OC [Example 378, 3-Phenylpropyl N-{4-[(6,7-dimethoxy-4-quinolyl)oxy]-2,3-dimethylphenyl}carbamate] | 14 | 92 |  |  | 
22 | COc1cc2ncnc(Oc3ccc(NC(=O)OCCCc4ccccc4)c(Cl)c3)c2cc1OC [Example 379, 3-Phenylpropyl N-{2-chloro-4-[(6,7-dimethoxy-4-quinazolinyl)oxy]phenyl}carbamate] | 11 | 624 |  |  | 
23 | COc1cc2nccc(Oc3ccc(NC(=O)OCC4CC4)cc3)c2cc1OC [Example 380, Cyclopropylmethyl N-{4-[(6,7-dimethoxy-4-quinolyl)oxy]phenyl}carbamate] | < 10 | 45 |  |  | 
24 | COc1cc2nccc(Oc3ccc(NC(=O)OCC4CC4)c(C)c3C)c2cc1OC [Example 382, Cyclopropylmethyl N-{4-[(6,7-dimethoxy-4-quinolyl)oxy]-2,3-dimethylphenyl}carbamate] | < 10 | 28 |  |  | 
25 | COc1cc2nccc(Oc3ccc(NC(=O)OCC4CCC4)cc3)c2cc1OC [Example 385, Cyclobutylmethyl N-{4-[(6,7-dimethoxy-4-quinolyl)oxy]phenyl}carbamate] | < 10 | 87 |  |  | 
26 | COc1cc2nccc(Oc3cc(C)c(NC(=O)OCC4CCC4)cc3C)c2cc1OC [Example 386, Cyclobutylmethyl N-{4-[(6,7-dimethoxy-4-quinolyl)oxy]-2,5-dimethylphenyl}carbamate] | 20 | 105 |  |  | 
27 | COc1cc2nccc(Oc3ccc(NC(=O)OCC4CCC4)c(C)c3C)c2cc1OC [Example 387, Cyclobutylmethyl N-{4-[(6,7-dimethoxy-4-quinolyl)oxy]-2,3-dimethylphenyl}carbamate] | < 10 | 31 |  |  | 
28 | COc1cc2ncnc(Oc3cc(C)c(NC(=O)OC4CCCCC4)cc3C)c2cc1OC [Example 390, Cyclohexyl N-{4-[(6,7-dimethoxy-4-quinazolinyl)oxy]-2,5-dimethylphenyl}carbamate] | 33 | 400 |  |  | 
29 | COc1cc2ncnc(Oc3cc(C)c(NC(=O)OC4CCCC4)cc3C)c2cc1OC [Example 392, Cyclopentyl N-{4-[(6,7-dimethoxy-4-quinazolinyl)oxy]-2,5-dimethylphenyl}carbamate] | > 100 | 432 | 38 |  | 
30 | COc1cc2ncnc(Oc3ccc(NC(=O)OC4CCCC4)c(C)c3C)c2cc1OC [Example 393, Cyclopentyl N-{4-[(6,7-dimethoxy-4-quinazolinyl)oxy]-2,3-dimethylphenyl}carbamate] | 82 | 90 |  |  | 
31 | COc1cc2nccc(Oc3ccc(NC(=O)OCC4CCCC4)c(C)c3C)c2cc1OC [Example 396, Cyclopentylmethyl N-{4-[(6,7-dimethoxy-4-quinolyl)oxy]-2,3-dimethylphenyl}carbamate] | 19 | 86 |  |  | 
32 | COc1cc2ncnc(Oc3ccc(NC(=O)OCC4CCCC4)c(Cl)c3)c2cc1OC [Example 398, Cyclopentylmethyl N-{2-chloro-4-[(6,7-dimethoxy-4-quinazolinyl)oxy]phenyl}carbamate] | 33 | 462 |  |  | 
33 | COc1cc2ncnc(Oc3ccc(NC(=O)OCCN4CCOCC4)cc3)c2cc1OC [Example 399, 2-Morpholinoethyl N-{4-[(6,7-dimethoxy-4-quinazolinyl)oxy]phenyl}carbamate] |  |  |  | 63 | 327
34 | CCCCC(CC)OC(=O)Nc1ccc(Oc2ncnc3cc(OC)c(OC)cc23)cc1 (stereo not shown) [Example 401, 1-Ethylpentyl N-{4-[(6,7-dimethoxy-4-quinazolinyl)oxy]phenyl}carbamate] |  |  |  | < 10 | 586
35 | COc1cc2ncnc(Oc3ccc(NC(=O)Oc4ccccc4OC)cc3)c2cc1OC [Example 403, 2-Methoxyphenyl N-{4-[(6,7-dimethoxy-4-quinazolinyl)oxy]phenyl}carbamate] |  |  |  | 14 | 93
36 | C=C(C)COC(=O)Nc1ccc(Oc2ncnc3cc(OC)c(OC)cc23)cc1 [Example 407, 2-Methylallyl N-{4-[(6,7-dimethoxy-4-quinazolinyl)oxy]phenyl}carbamate] |  |  |  | 26 | 68

— patent publication US7135466B2 (Kirin Beer Kabushiki Kaisha, priority 1999, dated 2006)
